Results: paper PMC2248166, “Quantitative peptide binding motifs for 19 human and mouse MHC class I molecules derived using positional scanning combinatorial peptide libraries” (Immunome Research, 2008)

Experiments:
Type in all cases: binding
HLA B*1501 = HLA B*1501 (Homo sapiens, UniProt P01889, A329T/A93T/A95T/C349S/D201E/D98Y/E187L/E204Q/E69M/E70A/K202T/N87E/Q94N/R155S/R180W/S121R/S35A/S48A/V306I/V36M/Y140S/Y91S); test: biochemical
H-2 D^d = H-2 D^d (Mus musculus, UniProt P01900)
HLA B*0801 = HLA B*0801 (Homo sapiens, UniProt P01889, A93T/A95T/D138N/E176V/E187T/K202T/Q94N/R180D/S35A/V36M/Y33D/Y91F); test: biochemical
HLA B*5401 = HLA B*5401 (Homo sapiens, UniProt P01889, A329T/C349S/D138N/D201E/E176V/E187T/E204Q/E69G/I76V/K202T/L119W/R155S/R180L/S121T/S35A/S48A/V127L/V306I/V36M/Y140L)
H-2 D^b = H-2 D^b (Mus musculus, UniProt P01899)
H-2 D^b, sequence (P01887 21-119): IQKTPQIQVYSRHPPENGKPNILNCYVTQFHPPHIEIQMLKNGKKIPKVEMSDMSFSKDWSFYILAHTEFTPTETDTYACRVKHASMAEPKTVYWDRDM
H-2 D^b, sequence (P01899 25-362): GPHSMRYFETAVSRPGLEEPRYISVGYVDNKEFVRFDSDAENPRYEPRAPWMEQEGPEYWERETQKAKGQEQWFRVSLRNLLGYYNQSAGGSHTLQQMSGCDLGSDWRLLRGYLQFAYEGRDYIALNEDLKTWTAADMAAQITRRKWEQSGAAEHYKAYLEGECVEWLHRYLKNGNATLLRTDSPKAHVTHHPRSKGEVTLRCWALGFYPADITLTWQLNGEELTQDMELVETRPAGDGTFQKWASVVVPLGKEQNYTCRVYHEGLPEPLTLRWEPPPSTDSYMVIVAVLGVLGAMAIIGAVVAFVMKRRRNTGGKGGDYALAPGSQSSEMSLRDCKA

H-2 K^d = H-2 K^d (Mus musculus, UniProt P01902)
H-2 K^d, sequence (P01887 21-119): as the sequence (P01887 21-119) above
H-2 K^d, sequence (P01902 22-368): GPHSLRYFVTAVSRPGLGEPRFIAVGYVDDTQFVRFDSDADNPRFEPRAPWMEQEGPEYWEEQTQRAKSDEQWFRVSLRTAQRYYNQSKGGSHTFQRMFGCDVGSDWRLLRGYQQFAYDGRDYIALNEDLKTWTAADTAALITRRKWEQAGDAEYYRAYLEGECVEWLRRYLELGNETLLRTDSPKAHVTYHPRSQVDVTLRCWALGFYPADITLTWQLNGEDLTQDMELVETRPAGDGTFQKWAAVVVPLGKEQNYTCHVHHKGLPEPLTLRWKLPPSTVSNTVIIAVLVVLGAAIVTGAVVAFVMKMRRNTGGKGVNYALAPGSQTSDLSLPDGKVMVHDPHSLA

HLA B*5801 = HLA B*5801 (Homo sapiens, UniProt P01889, A329T/C349S/D201E/D98Y/E176V/E187L/E204Q/E69T/G107R/I218V/I90N/K202T/L105A/L119I/N104I/N87E/Q89R/Q94S/R106L/R155S/R180L/R86G/S101N/S121R/S35A/S48A/T118I/V127L/V306I/V36M/Y140S/Y91M)
HLA B*5101 = HLA B*5101 (Homo sapiens, UniProt P01889, A329T/A93T/A95T/C349S/D138N/D201E/D98Y/E187L/E204Q/E69T/G107R/I218V/K202T/L105A/L119W/N104I/Q94N/R106L/R155S/R180L/S101N/S121T/S35A/S48A/V306I/V36M/Y195H/Y91F)
HLA B*1503 = HLA B*1503 (Homo sapiens, UniProt P01889, A329T/A93T/A95T/C349S/D201E/D98Y/E187L/E204Q/K202T/N87E/Q94N/R155S/R180L/S121R/S35A/V306I/V36M/Y140S/Y91S); test: biochemical
H-2 K^k = H-2 K^k (Mus musculus, UniProt P04223)
H-2 K^k, sequence (P01887 21-119): as the sequence (P01887 21-119) above
H-2 K^k, sequence (P04223 22-369): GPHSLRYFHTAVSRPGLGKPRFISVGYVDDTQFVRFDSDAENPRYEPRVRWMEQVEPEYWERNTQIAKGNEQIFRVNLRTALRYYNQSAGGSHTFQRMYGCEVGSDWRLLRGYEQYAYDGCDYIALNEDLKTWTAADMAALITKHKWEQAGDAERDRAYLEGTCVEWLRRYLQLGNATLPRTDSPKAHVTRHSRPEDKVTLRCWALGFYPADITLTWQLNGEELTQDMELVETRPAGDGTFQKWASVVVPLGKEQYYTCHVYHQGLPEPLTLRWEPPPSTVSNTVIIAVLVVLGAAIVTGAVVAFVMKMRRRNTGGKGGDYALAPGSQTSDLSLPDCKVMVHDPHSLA

HLA B*5802 = HLA B*5802 (Homo sapiens, UniProt P01889, A329T/C349S/D201E/D98Y/E176V/E187L/E204Q/E69T/G107R/I218V/I90N/K202T/L105A/N104I/N87E/Q89R/Q94S/R106L/R155S/R180L/R86G/S101N/S121W/S35A/S48A/V127L/V306I/V36M/Y140S/Y91M)
HLA A*3001 = HLA A*3001 (Homo sapiens, UniProt P04439, D140H/D185E/E176W/F33S/G80R/H175R/K168Q/R138E/R41S); test: biochemical
HLA B*3501 = HLA B*3501 (Homo sapiens, UniProt P01889, A329T/A93T/A95T/C349S/D201E/D98Y/E176V/E187L/E204Q/E69T/I218V/K202T/L119I/Q94N/R155S/R180L/S121R/S35A/S48A/T118I/V127L/V306I/V36M/Y140S/Y91F)
HLA A*6802 = HLA A*6802 (Homo sapiens, UniProt P04439, A269V/D140Y/D185E/E176V/E277Q/E87N/F33Y/G231S/I121R/I166T/I218V/L180W/L300P/L318F/N151K/P208A/P217A/Q86R/R138H/R169H/S129P/T345S/V36M)
HLA B*5301 = HLA B*5301 (Homo sapiens, UniProt P01889, A329T/A93T/A95T/C349S/D201E/D98Y/E176V/E187L/E204Q/E69T/G107R/I218V/K202T/L105A/L119I/N104I/Q94N/R106L/R155S/R180L/S101N/S121R/S35A/S48A/T118I/V127L/V306I/V36M/Y140S/Y91F)
HLA A*3201 = HLA A*3201 (Homo sapiens, UniProt P04439, A270S/D101S/D185E/E176V/E277Q/F133L/G103R/G107R/G231S/H175R/I121M/I218V/I322F/K168Q/L105A/L300P/L318F/M331R/P208A/P217A/Q94H/R106L/R138Q/S129P/T104I/T323A/T345S/V100E/V321M/V358M); test: biochemical

H-2 D^d, sequence (P01900 whole entry, looked up): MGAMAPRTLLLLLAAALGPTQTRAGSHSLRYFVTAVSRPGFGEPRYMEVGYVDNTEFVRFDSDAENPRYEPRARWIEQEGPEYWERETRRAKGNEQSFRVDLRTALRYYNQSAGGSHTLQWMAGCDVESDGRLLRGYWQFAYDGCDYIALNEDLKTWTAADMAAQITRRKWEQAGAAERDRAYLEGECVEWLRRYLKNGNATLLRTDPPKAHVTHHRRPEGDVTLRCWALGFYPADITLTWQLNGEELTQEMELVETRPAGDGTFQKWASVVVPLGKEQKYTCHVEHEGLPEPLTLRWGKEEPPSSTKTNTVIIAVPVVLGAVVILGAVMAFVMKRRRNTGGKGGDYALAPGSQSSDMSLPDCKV

| Sequence | Normalized average relative binding affinity(ARB) (HLA B*1501) | Normalized average relative binding affinity(ARB) (H-2 D^d) | Normalized average relative binding affinity(ARB) (HLA B*0801) | Normalized average relative binding affinity(ARB) (HLA B*5401) | Normalized average relative binding affinity(ARB) (H-2 D^b) | Normalized average relative binding affinity(ARB) (H-2 K^d) | Normalized average relative binding affinity(ARB) (HLA B*5801) | Normalized average relative binding affinity(ARB) (HLA B*5101) | Normalized average relative binding affinity(ARB) (HLA B*1503) | Normalized average relative binding affinity(ARB) (H-2 K^k) | Normalized average relative binding affinity(ARB) (HLA B*5802) | Normalized average relative binding affinity(ARB) (HLA A*3001) | Normalized average relative binding affinity(ARB) (HLA B*3501) | Normalized average relative binding affinity(ARB) (HLA A*6802) | Normalized average relative binding affinity(ARB) (HLA B*5301) | Normalized average relative binding affinity(ARB) (HLA A*3201) |
| --- | --- | --- | --- | --- | --- | --- | --- | --- | --- | --- | --- | --- | --- | --- | --- | --- |
| XXXXXXDXX [3064.0123] | 0.10 | 0.053 | 0.072 | 0.28 | 0.66 | 0.051 | 0.066 | 0.15 | 0.051 | 0.030 | 0.022 | 0.014 | 0.12 | 0.37 | 0.049 | 0.026 |
| XXXXXXEXX [3064.0124] | 0.49 | 0.060 | 0.32 | 0.26 | 0.96 | 0.14 | 0.15 | 0.37 | 0.043 | 0.13 | 0.092 | 0.050 | 0.36 | 0.42 | 0.29 | 0.092 |
| XXXXXXFXX [3064.0125] | 0.34 | 1.0 | 0.40 | 0.17 | 0.72 | 0.088 | 0.018 | 0.43 | 0.077 | 1.0 | 0.084 | 0.18 | 0.32 | 0.46 | 0.10 | 0.44 |
| XXXXXXGXX [3064.0126] | 0.52 | 0.031 | 0.17 | 0.073 | 0.45 | 0.28 | 0.031 | 0.33 | 0.12 | 0.34 | 0.024 | 0.044 | 0.12 | 0.071 | 0.058 | 0.051 |
| XXXXXXHXX [3064.0127] | 0.33 | 0.075 | 1.0 | 0.27 | 0.062 | 0.33 | 0.18 | 0.27 | 0.18 | 0.26 | 0.089 | 0.082 | 0.15 | 0.49 | 0.070 | 0.33 |
| XXXXXXIXX [3064.0128] | 0.40 | 0.048 | 0.030 | 0.15 | 0.33 | 0.045 | 0.65 | 0.59 | 0.29 | 0.037 | 0.058 | 0.16 | 0.48 | 0.55 | 0.10 | 0.094 |
